This passage reports vitality in % results from US8198333B2, “Cytostatic drug composition” (Geopharma Produktions GmbH, priority 2004, dated 2012).

Assay type in all cases: cell-based
Conditions in all cases: three days

For one experiment, the system named is BxPc-3. The experiment in a line: Cytostatic activity, EZ4U test, pancreas carcinoma cell line BxPc-3. How it is done: (§1) Cell lines of a colon carcinoma and a pancreas carcinoma, such as Capan-1, DLD-1, HT 29, HCT-8, MLA-PA-CA2, PANCI, BXPC-3, ASPC-1, and HT-29, were examined. The tested cancer cell lines were stored in liquid nitrogen. After defrosting, the cancer cells were cultivated in culture flasks with RPMI-1640+glutamine medium (Gibco® No. 5240025) at 37° C./5% CO2 atmosphere for up to 14 days so that a monolayer of cells was able to form. Thereupon, the cells were harvested with trypsin+EDTA (Gibco® No. 15400-054) and washed twice with an RPMI-medium.
(§2) Apart from poly-[2-(2-ethoxyethoxyethyl)guanidinium hydrochloride], the chemotherapeutic agents cisplatin, epirubicin, mitomycin C and 5-fluorouracil were tested by way of comparison. Therefor, the compounds were at first dissolved according to the respective instructions of the manufacturer and were then stored as a stock solution in aliquots of 1 ml each (concentration of drug substance: 1000 μg/ml) in liquid nitrogen at −180° C. The dissolved substances were used on the very same day.
(§3) In order to determine the cytotoxic activity of the substances, the cancer cells were transferred from the culture flasks with an RPMI-washed suspension at a concentration of 20,000 cells in 200 μl onto microtiter plates. In the presence of varying concentrations of the test substances, the cancer cells were subsequently incubated for three days at a temperature of 37° C. and in an atmosphere of 5% CO2. For the poly-[2-(2-ethoxyethoxyethyl)guanidinium hydrochloride], concentrations of 0.12 to 500 μg/ml (factor 2 dilutions) were used in all test arrangements. After three days of incubation, the evaluation was carried out by means of the nonradioactive cell proliferation and cytotoxicity test EZ4U (Biomedica No. BI-5000 10×96 determinations). After three hours of incubation with EZ4U, the evaluation was carried out photometrically in percent at a wavelength of […] in a slidephotometer (extinction of the test sample divided by extinction of the control-sample blank value).

Another experiment deals with AsPc-1. The experiment in a line: Cytostatic activity, EZ4U test, pancreas carcinoma cell line AsPc-1. How it is done: as §1, §2, §3
The next experiment concerns Capan-1. Description: Cytostatic activity, EZ4U test, pancreas carcinoma cell line Capan-1. The method, then: as §1, §2, §3
The subject of the next experiment is Panc-1. The experiment in a line: Cytostatic activity, EZ4U test, pancreas carcinoma cell line Panc-1. How it is done:
as §1, §2, §3

Turning to `N.N.[Cl][Pt][Cl]` [Cisplatin], the vitality in % with BxPc-3 (0.025 μg/ml) came out at 87%; in the experiment with BxPc-3 (0.25 μg/ml) it was 65%; in the experiment with BxPc-3 (2.5 μg/ml), 93%; with AsPc-1 (0.025 μg/ml), 85%; with AsPc-1 (0.25 μg/ml) it was 89%; in the experiment with AsPc-1 (2.5 μg/ml) it was 53%. In addition, the vitality in % in the experiment on Capan-1 (0.025 μg/ml) stood at 94%; in the experiment on Capan-1 (0.25 μg/ml), 54%; in the experiment with Capan-1 (2.5 μg/ml), 36%.
As for `COc1cccc2c1C(=O)c1c(O)c3c(c(O)c1C2=O)C[C@@](O)(C(=O)CO)C[C@@H]3O[C@H]1C[C@H](N)[C@@H](O)[C@H](C)O1` [Epirubicin], the vitality in % is reported as 76% with BxPc-3 (0.12 μg/ml); 55% in the experiment with BxPc-3 (1.19 μg/ml); 62% in the experiment on BxPc-3 (11.9 μg/ml); 105% in the experiment with AsPc-1 (0.12 μg/ml); 59% in the experiment with AsPc-1 (1.19 μg/ml); 55% in the experiment on AsPc-1 (11.9 μg/ml). The vitality in % with Capan-1 (0.12 μg/ml) amounted to 50%; in the experiment on Capan-1 (1.19 μg/ml) it was 35%; with Capan-1 (11.9 μg/ml), 54%; in the experiment with Panc-1 (0.12 μg/ml), 111%; in the experiment with Panc-1 (1.19 μg/ml), 43%; in the experiment with Panc-1 (11.9 μg/ml), 61%.
